For nine compounds, viability results are on record in ChEMBL document CHEMBL3046438, “Synthesis and Cytotoxic Evaluation of 1,2,3-Trisubstituted 2-(2-Oxoalkyl)-2,3-dihydrobenzimidazoles” (Med Chem Res, 2005).

For data set [1], the system named is A2058. Description: Cytotoxicity against Homo sapiens (human) A2058 cells assessed as cell viability at 10^-4 M after 72 hr by trypan blue exclusion assay relative to control. In kind it is functional. Particulars: A2058, 72 h, read-out: Activity.
Data set [2] in a line: Cytotoxicity against Homo sapiens (human) FL cells assessed as cell viability at 10^-4 M after 48 hr by trypan blue exclusion assay relative to control. The note with it: read-out: Activity. In kind it is cell-based.
Data set [3] deals with A2058. Description: Cytotoxicity against Homo sapiens (human) A2058 cells assessed as cell viability at 10^-4 M after 96 hr by trypan blue exclusion assay relative to control. In kind it is functional. The note with it: A2058, 96 h, read-out: Activity.
In data set [4] the test system is A2058. Description: Cytotoxicity against Homo sapiens (human) A2058 cells assessed as cell viability at 10^-4 M after 24 hr by trypan blue exclusion assay relative to control. The data set is classed as functional. The note with it: A2058, 24 h, read-out: Activity.
Data set [5] in a line: Cytotoxicity against Homo sapiens (human) FL cells assessed as cell viability at 10^-4 M after 96 hr by trypan blue exclusion assay relative to control. In kind it is cell-based. The note with it: read-out: Activity.
The nature of data set [6]: Cytotoxicity against Homo sapiens (human) FL cells assessed as cell viability at 10^-4 M after 24 hr by trypan blue exclusion assay relative to control. The note with it: read-out: Activity. In kind it is cell-based.
Data set [7] can be described thus: Cytotoxicity against Homo sapiens (human) FL cells assessed as cell viability at 10^-4 M after 72 hr by trypan blue exclusion assay relative to control. Particulars: read-out: Activity. In kind it is cell-based.
In data set [8] the test system is RD. Description: Cytotoxicity against Homo sapiens (human) RD cells assessed as cell viability at 10^-4 M after 24 hr by trypan blue exclusion assay relative to control. The data set is classed as functional. Particulars: read-out: Activity.
Data set [9] relates to RD. Description: Cytotoxicity against Homo sapiens (human) RD cells assessed as cell viability at 10^-4 M after 96 hr by trypan blue exclusion assay relative to control. In kind it is functional. The note with it: read-out: Activity.
In data set [10] the test system is A2058. Description: Cytotoxicity against Homo sapiens (human) A2058 cells assessed as cell viability at 10^-4 M after 48 hr by trypan blue exclusion assay relative to control. The data set is classed as functional. Particulars: A2058, 48 h, read-out: Activity.
Data set [11] concerns RD. Description: Cytotoxicity against Homo sapiens (human) RD cells assessed as cell viability at 10^-4 M after 72 hr by trypan blue exclusion assay relative to control. The data set is classed as functional. Particulars: read-out: Activity.
The test system of data set [12] is RD. Description: Cytotoxicity against Homo sapiens (human) RD cells assessed as cell viability at 10^-4 M after 48 hr by trypan blue exclusion assay relative to control. The data set is classed as functional. The note with it: read-out: Activity.

For `CCOC(=O)N1c2ccccc2N(C(=O)OCC)C1CC(=O)c1ccccc1`, the viability at 100 µM in [1] came to 53.5%; in data set [3], 65.3%; in [4], 94.1%; in data set [8] it was 86.4%; in [9] it was 88.1%; in data set [10] it was 106%. The values for the viability at 100 µM in data set [11] and in [12] were 92.9% and 93.2%, respectively. Moreover, the viability at 48 h, 100 µM in data set [2] amounted to 83.1%. Further, the viability at 96 h, 100 µM in [5] is 77.3%. In data set [6], the viability at 24 h, 100 µM worked out at 75.7%. Moreover, the viability at 72 h, 100 µM in data set [7] came to 74.5%.
For `CCOC(=O)N1c2cc(C)c(C)cc2N(C(=O)OCC)C1CC(=O)/C=C/c1ccccc1`, the viability at 100 µM in data set [1] amounted to 80.2%; in data set [3] it was 75.5%; in [4] it was 82.3%; in [8] it was 86.4%; in data set [9], 79.8%; in data set [10], 86.4%. The figures for the viability at 100 µM in data set [11] and in data set [12] were 81.4% and 70.5%, respectively. Besides, in data set [2], the viability at 48 h, 100 µM turned out to be 67.5%. In addition, the viability at 96 h, 100 µM in [5] is 74.2%. In data set [6], the viability at 24 h, 100 µM was 94.6%. Besides, the viability at 72 h, 100 µM in [7] is 60%.
With `CCOC(=O)N1c2ccccc2N(C(=O)OCC)C1CC(=O)/C=C/c1ccccc1`, the viability at 100 µM in data set [1] is 8.14%; in data set [3] it was 7.14%; in [4], 14.7%; in [8] it was 45.5%; in data set [9], 39.4%; in [10], 12.1%. Also, the viability at 100 µM was found to be 52.9% in data set [11] and 59.1% in [12]. In [2], the viability at 48 h, 100 µM was determined as 77.9%. Further, the viability at 96 h, 100 µM in data set [5] came to 81.1%. For the same compound, in data set [6], the viability at 24 h, 100 µM amounted to 111%. Further, the viability at 72 h, 100 µM in [7] came out at 83.6%.
Regarding `CCOC(=O)N1c2ccccc2N(C(=O)OCC)C1CC(=O)Cc1ccccc1`, the viability at 100 µM in data set [1] came to 11.6%; in data set [3], 6.12%; in data set [4], 41.2%; in data set [8], 63.6%; in data set [9] it was 11.9%; in data set [10], 21.2%. Besides, the values for the viability at 100 µM in data set [11] and in data set [12] were 14.3% and 31.8%, respectively. Moreover, the viability at 48 h, 100 µM in [2] is 10.4%. The viability at 96 h, 100 µM in data set [5] amounted to 3.03%. The viability at 24 h, 100 µM in data set [6] stood at 27%. Moreover, the viability at 72 h, 100 µM in data set [7] stood at 5.45%.
As to `CCOC(=O)N1c2ccccc2N(C(=O)OCC)C1CC(=O)c1ccc(O)cc1`, the viability at 100 µM in data set [1] stood at 9.3%; in data set [3], 6.12%; in data set [4], 35.3%; in [8] it was 27.3%; in [9] it was 3.57%; in data set [10], 12.1%. Also, the viability at 100 µM came out at 5.71% in data set [11] and 13.6% in [12]. Also, in data set [2], the viability at 48 h, 100 µM stood at 11.7%. In addition, in data set [5], the viability at 96 h, 100 µM came out at 4.55%. The viability at 24 h, 100 µM in data set [6] stood at 29.7%. In addition, the viability at 72 h, 100 µM in [7] came out at 7.27%.
In the case of `CCOC(=O)N1c2cc(C)c(C)cc2N(C(=O)OCC)C1CC(=O)c1ccccc1`, the viability at 100 µM was found to be 50% in data set [1]; 31.6% in [3]; 97.1% in data set [4]; 45.5% in [8]; 32.1% in data set [9]; 83.3% in data set [10]. The viability at 100 µM in data set [11] worked out at 47.1%; in [12], 52.3%. Also, the viability at 48 h, 100 µM in [2] turned out to be 46.8%. Further, the viability at 96 h, 100 µM in data set [5] was 62.1%. The viability at 24 h, 100 µM in data set [6] is 67.6%. Further, the viability at 72 h, 100 µM in [7] amounted to 60%.
In the case of `CCOC(=O)N1c2cc(C)c(C)cc2N(C(=O)OCC)C1CC(=O)c1ccc(OC)cc1`, the viability at 100 µM in [1] came to 38.4%; in [3] it was 33.7%; in [4] it was 55.9%; in data set [8], 31.2%; in [9] it was 57.1%; in [10], 54.5%. In addition, the viability at 100 µM in [11] was 58.6%; in data set [12], 43.2%. Besides, in data set [2], the viability at 48 h, 100 µM came to 49.4%. Moreover, the viability at 96 h, 100 µM in [5] was 65.9%. Also, in [6], the viability at 24 h, 100 µM was found to be 75.7%. Moreover, in data set [7], the viability at 72 h, 100 µM was found to be 63.6%.
As to `CCOC(=O)N1c2cc(C)c(C)cc2N(C(=O)OCC)C1CC(C)=O`, the viability at 100 µM is 69.8% in data set [1]; 70.4% in [3]; 82.3% in data set [4]; 31.2% in data set [8]; 17.9% in data set [9]; 57.6% in data set [10]. The viability at 100 µM in data set [11] was 24.3%; in data set [12], 40.9%. The viability at 48 h, 100 µM in [2] was determined as 31.2%. For the same compound, the viability at 96 h, 100 µM in data set [5] turned out to be 39.4%. Also, in data set [6], the viability at 24 h, 100 µM is 111%. The viability at 72 h, 100 µM in data set [7] was 15.4%.
`CCOC(=O)N1c2ccccc2N(C(=O)OCC)C1CC(C)=O`: the viability at 100 µM in data set [1], in [3], in data set [4], in [8], in [9] and in data set [10] was 0% throughout. For the same compound, the viability at 100 µM in data set [11] and in data set [12] was 0% throughout. Moreover, in [2], the viability at 48 h, 100 µM came out at 0%. The viability at 96 h, 100 µM in [5] came out at 0%. For the same compound, in data set [6], the viability at 24 h, 100 µM was 0%. Further, the viability at 72 h, 100 µM in [7] was found to be 0%.
